# Tests used:
# [1] = system: dextran sodium sulfate-induced colitis; assay: Dextran sodium sulfate-induced colitis in rats, prophylactic; format: in vivo, rat; settings: SD rats, 5.5 w/v % DSS, oral 1 mg/kg and 3 mg/kg once a day
# Description: Prophylactic effect of compound F on colitis was also studied in rats. Male SD rats, 7 weeks old, body weight around 210 g-240 g (Charles River) were purchased, acclimated for 1 week and used for the study. Except the normal group, the rats were allowed to freely drink a DSS (MP Biochemicals, M.W. 36,000-50,000, Lot No. 4556J) solution prepared to 5.5 w/v % for 8 days to induce colitis. Compound F at doses of 0.3, 1 and 3 mg/kg was orally administered once a day, daily, from one day before the start day of DSS drinking to one day before autopsy (day 7). To the control group was orally administered a solvent (1 vol % ethanol solution) at 5 mL/kg.
# On day 8 from the start of DSS drinking, 1.25 w/v % Evans blue solution was administered at 0.2 mL/100 g from the tail vein. After 30 min, the rats were subjected to laparotomy under ether anesthesia and exsanguinated to death. Thereafter, the large intestine was dissected from just below the cecum to the anus, and the length was measured with a scale. […] The next day, the dry weight was measured, formamide (2 mL) was added, the dye was extracted at 50° C. overnight, and the level thereof was measured at 620 nm. A standard curve was prepared using an Evans blue standard solution, and the amount (mg) of Evans blue in 1 g of the colonic tissue was calculated to estimate degree of colonic tissue injury. […]
# [2] = system: dextran sodium sulfate-induced colitis; assay: Dextran sodium sulfate-induced colitis model in mice (BALB/c), prophylactic; format: in vivo, mouse; settings: 2.2 w/v % DSS
# From the text: The prophylactic effect of compound F on ulcerative colitis was examined in dextran sodium sulfate-induced colitis model.
# Female BALB/c mice (6 weeks old, Japan SLC) were purchased, acclimated for 1 week and used for the study. Except the normal group, the mice were allowed to freely drink a dextran sodium sulfate (to be abbreviated as DSS, MP Biochemicals, M.W. 36,000-50,000, Lot No. 3439J) solution prepared to 2.2 w/v % for 9 days to induce colitis. Compound F was orally administered at doses of 0.1, 0.3 and 1 mg/kg, once a day, daily, from the start day of DSS drinking (day 0) to one day before autopsy (day 9). To the control group was orally administered a solvent (1 vol % ethanol solution) at 10 mL/kg in the same manner.
# Thus, to determine the level of diarrhea, the stool was graded into 6 levels; normal (score 0), spherical stool being not less than 50% (score 1), banana-shaped stool being less than 50% (score 2), banana-shaped stool being not less than 50% (score 3), muddy stool (score 4), watery stool (score 6) (stool consistency score). The fecal occult blood (including proctorrhagia) was graded using fecal occult blood slide 5 Shionogi II (Shionogi & Co., Ltd.) into 6 levels; negative (no change of the slide color from yellow, score 0), weakly positive (slightly blue green, score 1), positive (blue green, score 2), moderately positive (clear blue green, score 3), strongly positive (instantaneous color change to dark blue with color developer, score 4), and proctorrhagia (score 5). The sum of the stool consistency score and occult blood score was defined as the stool score. Eight to 10 animals were used for each group, and the results were expressed as average±standard deviation. On the day of autopsy, after laparotomy under ether anesthesia and blood collection, the mice were exsanguinated to death. Then the large intestines were dissected from just below the cecum to the anus and the length thereof was measured.
# [3] = system: dextran sodium sulfate-induced colitis; assay: Dextran sodium sulfate-induced colitis model in mice (C57BL/6); format: in vivo, mouse; settings: C57BL/6 mice, DSS, oral 0.3 and 1 mg/kg once a day
# Description: Whether or not an IP agonist has an effect on such colitis model was determined using a selective IP agonist, BPS.
# Female C57BL/6 mice (6 weeks old, Japan SLC) were purchased, acclimated for 1 week and used for the study. Except the normal group, the mice were allowed to freely drink a 3 or 2 w/v % DSS (MP Biochemicals, Lot No. 5653H and 5464H, respectively) solution for 1 week to induce colitis. BPS at a dose of 0.3 mg/kg and compound F at doses of 0.3 and 1 mg/kg were orally administered once a day, daily, from the start day of DSS drinking (day 0) to one day before autopsy (day 9). To the control group was orally administered a solvent (1 vol % ethanol solution) at 10 mL/kg in the same manner. The consistency of the stool was graded from score 0 to 4, with normal (0), partly loose stool (1), loose stool (2) and diarrhea (4). The blood feces was also graded from score 0 to 4, with normal (0), partly blood feces (1), blood feces (2) and blood feces plus proctorrhagia (4). The sum of both grades was defined as the stool score (maximum 8). Furthermore, the length of the large intestine was measured in the same manner as in Example 23. Six to 10 animals were used for each group, and the results are shown in average±standard deviation.
smiles,measurement,setting,value
"Cc1cccc([C@@H](C)[C@H](O)/C=C/[C@@H]2[C@@H]3[C@H](C[C@H]2O)O/C(=C\CCCc2nnn[nH]2)C3(F)F)c1 [Compound F, 4-[(Z)-(1S,5R,6R,7R)-6-[(1E,3R,4R)-3-hydroxy-4-(m-tolyl)-1-pentenyl]-7-hydroxy-2-oxa-4,4-difluoro-bicyclo[3.3.0]octan-3-ylidene]-1-(tetrazol-5-yl)butane]","Effect on stool score, colonic tissue injury and shortening of the large intestine",[1],suppressive tendency or significant suppressive effect
same,Suppression of the increase in the stool score,[2]; oral 0.1 mg/kg once a day,suppressive tendency
same,Effect on shortening of the large intestine,"[2]; oral 0.1, 0.3 and 1 mg/kg once a day",dose-dependent suppressive effect
same,Suppression of the increase in the stool score,[2]; oral 0.3 and 1 mg/kg once a day,significant
same,"Effect on the onset of colitis (stool score, colon shortening)",[3],superior prophylactic effect
